Reference: the supplement of paper PMC4862054
Where “and” joins values, the source holds several entries; their conditions need not be identical. Identical values can stand only once.

Assays:
Conditions in all cases: incubation time: 72 h
[1] = test system: MDA-MB-231; test: normalised viability (% of control), CellTiter-Blue; higher = more viable cells (100 = DMSO, 0 = benzethonium chloride kill control)
Description: (§1)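 DSRT, CellTiter-Blue viability, 72 h incubation. Signal is normalised to DMSO and benzethonium chloride controls. Value is the normalised response at dose 1.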

[2] = test system: BT-474; test: as above
Description: as §1

[3] = test system: Hs578T; test: as above
Description: as §1

[4] = test system: MDA-MB-453; test: as above
Description: as §1

[5] = test system: HCC1143; test: as above
Description: as §1

[6] = test system: CAL-85-1; test: as above
Description: as §1

[7] = test system: MDA-MB-436; test: as above
Description: as §1

[8] = test system: CAL-148; test: as above
Description: as §1

[9] = test system: MFM-223; test: as above
Description: as §1

[10] = test system: CAL-51; test: as above
Description: as §1

[11] = test system: BT-549; test: as above
Description: as §1

[12] = test system: SK-BR-3; test: as above
Description: as §1

[13] = test system: MDA-MB-468; test: as above
Description: as §1

[14] = test system: DU-4475; test: as above
Description: as §1

[15] = test system: HCC1599; test: as above
Description: as §1

[16] = test system: CAL-120; test: as above
Description: as §1

[17] = test system: HDQ-P1; test: as above
Description: as §1

[18] = test system: HCC1937; test: as above
Description: as §1

[19] = test system: MDA-MB-231; test: normalised response (% of control), CellTiter-Glo; higher = more viable cells (100 = DMSO, 0 = benzethonium chloride kill control)
Outline: (§2)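 Breast cancer cell lines in 20 µl suspension were added to 384-well plates containing compound at 5 concentrations, spaced in 10-fold steps across a 10,000-fold range chosen for each compound, and incubated for 72 h. CellTox Green fluorescence was read at 485/520 nm, followed by CellTiter-Glo luminescence after 10 min at room temperature. Signals on each plate were normalised so that 0.1 % DMSO equals 100 and a positive kill control equals 0. Every value in the table is the normalised signal at one concentration of the series.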

[20] = test system: BT-474; test: as above
Outline: as §2

[21] = test system: Hs578T; test: as above
Outline: as §2

[22] = test system: MDA-MB-453; test: as above
Outline: as §2

[23] = test system: HCC1143; test: as above
Outline: as §2

[24] = test system: MCF-10A; test: as above
Outline: as §2

[25] = test system: CAL-85-1; test: as above
Outline: as §2

[26] = test system: MDA-MB-436; test: as above
Outline: as §2

[27] = test system: CAL-148; test: as above
Outline: as §2

[28] = test system: MFM-223; test: as above
Outline: as §2

[29] = test system: CAL-51; test: as above
Outline: as §2

[30] = test system: BT-549; test: as above
Outline: as §2

[31] = test system: SK-BR-3; test: as above
Outline: as §2

[32] = test system: MDA-MB-468; test: as above
Outline: as §2

[33] = test system: DU-4475; test: as above
Outline: as §2

[34] = test system: HCC1599; test: as above
Outline: as §2

[35] = test system: CAL-120; test: as above
Outline: as §2

[36] = test system: HDQ-P1; test: as above
Outline: as §2

[37] = test system: HCC1937; test: as above
Outline: as §2

Row | SMILES | normalised viability [1] | normalised viability [2] | normalised viability [3] | normalised viability [4] | normalised viability [5] | normalised viability [6] | normalised viability [7] | normalised viability [8] | normalised viability [9] | normalised viability [10] | normalised viability [11] | normalised viability [12] | normalised viability [13] | normalised viability [14] | normalised viability [15] | normalised viability [16] | normalised viability [17] | normalised viability [18] | normalised response [19] | normalised response [20] | normalised response [21] | normalised response [22] | normalised response [23] | normalised response [24] | normalised response [25] | normalised response [26] | normalised response [27] | normalised response [28] | normalised response [29] | normalised response [30] | normalised response [31] | normalised response [32] | normalised response [33] | normalised response [34] | normalised response [35] | normalised response [36] | normalised response [37]
1 | Nc1cc(C(F)(F)F)c(-c2cc(N3CCOCC3)nc(N3CCOCC3)n2)cn1 [BKM-120] (1 nM) | 110% | 116% | 121% | 103% | 88.4% | 89.5% | 104% | 105% | 93% | 98% | 97.8% | 99.7% | 96.6% | 114% | 82.8% | 85.6% | 99% | 95.9% | – | – | – | – | – | – | – | – | – | – | – | – | – | – | – | – | – | – | –
2 | O=C(/C=C/c1cccc(S(=O)(=O)Nc2ccccc2)c1)NO [Belinostat] (1 nM) | 102% | 106% | 109% | 101% | 107% | 92.5% | 120% | 97.1% | 93.4% | 102% | 89.5% | 91.5% | 103% | 93.1% | 97.1% | 97.4% | 84.2% | 111% | 95.8% | 91% | 92.9% | 97% | 91.8% | 87% | 97.8% | 91.7% | 99.9% | 89.2% | 75.1% | 96.1% | 87.8% | 94.9% | 98.9% | 97.6% | 96.6% | 93.5% | 96.5%
3 | O=P1(N(CCCl)CCCl)NCCCO1 (stereo not given) [Cyclophosphamide] (4 nM) | 96.9% | 97% | 102% | 104% | 96.8% | 88.2% | 110% | 119% | 85.1% | 105% | 93.2% | 101% | 98.9% | 120% | 81.6% | 87.3% | 107% | 82.9% | 96.9% | 93.9% | 101% | 115% | 100% | 111% | 97.4% | 94% | 99.6% | 105% | 81.2% | 98.5% | 110% | 102% | 103% | 107% | 93.4% | 97.7% | 96.7%
4 | COc1cc2ncnc(Nc3ccc(F)c(Cl)c3)c2cc1OCCCN1CCOCC1 [Gefitinib] (1 nM) | 94.2% and 90.6% | – | – | 97.3% and 100% | 73.7% and 90.5% | 85.3% and 81.5% | 92.2% and 90.9% | 107% and 106% | 89.3% and 83.4% | 108% and 107% | 120% and 111% | 87.4% and 97.4% | 90% and 110% | 104% and 98.6% | 85.7% and 96.3% | 77.2% and 85.9% | 108% and 86.3% | 91.6% and 89.4% | 97.2% | 97.7% | 99% | 109% | 102% | 98.8% | 101% | 85.5% | 107% | 105% | 93.1% | 94.8% | 108% | 105% | 99.3% | 99.2% | 97.6% | 94.4% | 91.6%
5 | S=P(N1CC1)(N1CC1)N1CC1 [Thio-TEPA] (10 nM) | 94.8% | 100% | 106% | 104% | 97.9% | 92.8% | 99.2% | 102% | 101% | 94% | 106% | 92.1% | 107% | 88.7% | 95.7% | 86.2% | 109% | 90% | – | – | – | – | – | – | – | – | – | – | – | – | – | – | – | – | – | – | –
